A short description of experiment [1]: Clinical data of DBA/2J mice (controls and STZ diabetic): body weight, kidney weight, blood glucose, urinary volume. Format: in vivo, mice (DBA/2J). The arrangement: Blood glucose at sacrifice: unit: mg/dl. The conditions noted are these: for Kidney Weight: in g (unit assumed). As to the method:
The animal model employed is the murine model DBA/2J. 8-weeks-old mice received daily intraperitoneal injections for five consecutive days of either sodium citrate (females, control group) or streptozotocin (STZ, 45 mg/kg, pH4.5, dissolved in sodium citrate) for the study group (males). Only those animals showing a blood glucose level above 250 mg/dl were included in this study. Five weeks following the last STZ injection, animals were treated with NSC697923 dissolved in PBS (3 mg/kg, 3 times a week for 6 weeks) and/or […] (2 mg/kg, 3 times a week for 6 weeks) dissolved in DMSO 2% either alone or in combination [NSC697923 (3 mg/kg)+[…] (2 mg/kg) 3 times a week for 6 weeks]. Serum and 24 h urine samples were collected at the end of the treatment. Kidney samples were collected at sacrifice and immediately fixed in formalin and embedded in paraffin.

Experiment [2] relates to diabetic mice (STZ). As to the kind of experiment: Urinary albumin analysis (Mouse Albumin ELISA Kit) in 24 h urine. Format: in vivo, mice (DBA/2J). The conditions noted are these: for ug urine albumin 24 h: 24 h urine. As to the method: (§1) The animal model employed is the murine model DBA/2J. 8-weeks-old mice received daily intraperitoneal injections for five consecutive days of either sodium citrate (females, control group) or streptozotocin (STZ, 45 mg/kg, pH4.5, dissolved in sodium citrate) for the study group (males). Only those animals showing a blood glucose level above 250 mg/dl were included in this study. Five weeks following the last STZ injection, animals were treated with NSC697923 dissolved in PBS (3 mg/kg, 3 times a week for 6 weeks) and/or RAMIPRIL (2 mg/kg, 3 times a week for 6 weeks) dissolved in DMSO 2% either alone or in combination [NSC697923 (3 mg/kg)+RAMIPRIL (2 mg/kg) 3 times a week for 6 weeks]. Serum and 24 h urine samples were collected at the end of the treatment. Kidney samples were collected at sacrifice and immediately fixed in formalin and embedded in paraffin.
Urinary albumin concentration was measured in the urine of these animals using the commercially available Mouse Albumin ELISA Kit (Abcam). The urinary albumin values were normalized to the total urinary protein content compared to the total volume of urines produced during the 24 h before sacrifice.
A general note: An ELISA detects its analyte on a solid surface through an enzyme-linked reagent.

Experiment [3] relates to α-sma expression in HK2 cells. Description: Western blotting of α-sma in HK2 cells under high glucose. The experiment is classed as cell-based, human. Particulars: Example 3, FIG. 3, high glucose 30 mM, NSC697923 1 μM, Ramipril 10 μM. As to the method:
(§2) HK2 cells, a line of Renal Proximal Tubule Epithelial Cells (PTEC) obtained from a human control kidney, were purchased from the American Type Culture Collection (ATCC, Rockville, MD). Cells were cultured in DMEM growth medium low glucose (5.5 mM) with the addition of 10% fetal bovine serum (FBS), 1% Penicillin and Streptomycin and 1% L-Glutamine (Sigma-Aldrich, Munich, Germany). Prior to each passage, cells reaching confluence were rinsed with phosphate-buffered saline (PBS), trypsinized with Trypsin 0.05% and Ethylenediaminetetraacetic acid (EDTA) 0.02% in PBS and seeded in complete growth medium with or without the addition of D-Glucose 24.5 mM (final concentration in hyperglycemia HG=30 mM) or L-Glucose 24.5 mM as osmolarity control, for each predetermined time point. Cells were then incubated at 37° C. in 5% CO2.
Cells were plated in six-well plates and incubated to reach confluence. Cells were then exposed to either D- or L-Glucose at a concentration of 30 mM for the indicated time point. […]
By western blotting on cultured immortalized renal tubular cells (HK2) we evaluated the protein expression levels of α-sma, a marker of epithelial-to-mesenchymal transition.

In experiment [4] the test system is α-sma expression in HK2 cells. Description: Immunofluorescence/confocal microscopy of α-sma in HK2 cells under high glucose. Format: cell-based, human. The conditions noted are these: NSC697923 1 μM. As to the method:
as §2
(§3) The cellular distribution of the proteins showing lysine63-linked ubiquitylation and the expression of the mesenchymal marker α-sma was evaluated in HK2 cells through indirect immunofluorescence and confocal microscopy analysis following incubation with specific antibodies. For each condition, 150.000 cells were plated on sterile glass slides and then incubated with D- or L-Glucose 30 mM for the indicated time point. In some predetermined conditions, the specific inhibitor of Lysine63-linked ubiquitylation, NSC697923, was pre-incubated at a 1 μM final concentration, 1 h prior to the addition of glucose and/or the ACE-inhibitor Ramipril at a final concentration of 10 μM and/or the SGLT2 inhibitor Empaglifozin at a 500 nM final concentration. Following stimulation, HK2 were fixed 15 min in paraformaldehyde 4%, treated 5 min with Triton-X 100 0.1% in PBS, and incubated 1 h in blocking buffer (goat serum 4%+BSA 2%). Cells were then incubated 1 h with the specific antibodies against α-sma and lysine63 ubiquitin diluted in blocking buffer. The antigen-antibody complex was then identified using a secondary fluorescent antibody (specifically Alexa Fluor 555 goat anti-rabbit and Alexa Fluor 488 goat anti-mouse). Prior to the incubation with the secondary antibody, cells were rinsed three times in PBS. Cells nuclei were then stained using TO-PRO-3 diluted in PBS and slides were mounted. The negative control was obtained incubating cells in blocking without the addition of the primary antibody. The fluorescence signal was then acquired using the Leica TCS SP2 confocal microscope and images were saved at a 63× zoom using the microscope software. Signal was finally quantified measuring the area % of fluorescent signal compared to the background.

Experiment [5] has as its system Lysine 63 ubiquitinated proteins in HK2 cells. Description: Immunofluorescence/confocal microscopy of lysine 63 ubiquitinated proteins in HK2 cells under high glucose. The conditions noted are these: high glucose 30 mM, NSC697923 1 μM. The experiment is classed as cell-based, human. As to the method:
as §2, §3

In experiment [6] the test system is Lysine 63 ubiquitinated proteins (Lys63-Ub). Description: Immunohistochemistry of lysine 63 ubiquitinated proteins on renal tissue. Format: in vivo, mice (DBA/2J). The conditions noted are these: diabetic mice (STZ). As to the method:
Tissue samples were obtained from kidney of DBA/2J mice. Following sacrifice, tissues were fixed in 4% formaldehyde. In order to evaluate the accumulation of proteins undergoing Lysisine63-linked ubiquitylation through immunohistochemistry, dewaxed and unmasked sections were incubated 10 min in H2O2 and 5 min in Triton 0.25% at ambient temperature. Sections were then blocked 10 min with Protein block (Dako, Glostrup, Denmark) and then incubated 1 h with the specific antibody against and lysine63-linked ubiquitylation. […] Sections were stained with hematoxylin and slides were mounted with glycerol. The negative control sample lacks the primary antibody incubation step. The signal is then quantified using the Positive Pixel Count v9_v10.0.0.1805 algorithm (Aperio Technologies) that measures the number of […].
The animal model employed is the murine model DBA/2J. […]
(§4) Lysine 63 ubiquitinated proteins accumulation has been evaluated by immunohistochemistry on renal tissues from the mice model of diabetic nephropathy (DBA/2J mice+streptozotocin-STZ); the degree of fibrosis in these samples has been evaluated by Sirius Red Fast Green staining.

The test system of experiment [7] is diabetic mice (STZ). As to the kind of experiment: Sirius Red/Fast Green staining of tubular-interstitial fibrosis in kidney. Format: in vivo, mice (DBA/2J). As to the method:
Tissue samples were obtained from kidneys of DBA/2J mice following sacrifice. Tissue was fixed in 4% formaldehyde. Following dewaxing and hydration, sections were incubated with Bouin's solution overnight at ambient temperature. Sections were then rinsed using running tap water to remove all the fixative residues and incubated 1 h at ambient temperature with the Sirius Red/Fast Green dye combination 1:1.
as §1, with “Serum and 24 h urine samples were collected at the end of the treatment. Kidney samples were collected at sacrifice and immediately fixed in formalin and embedded in paraffin.” left out
as §4

Experiment [8] has as its system immortalized human renal tubular cells HK2. Particulars: in vitro cellular model of HK2 cells; Pontrelli et al. FASEB J 2017; cited from earlier work.
[9] abbreviates: Table 2, diabetic (STZ) DBA/2J mice, NSC697923 3 mg/kg and/or Ramipril 2 mg/kg 3 times a week for 6 weeks.
[10] abbreviates: Table 2, non-diabetic DBA/2J mice, NSC697923 3 mg/kg and/or Ramipril 2 mg/kg 3 times a week for 6 weeks.
Setting [11] is: Example 4, FIG. 4b, Ramipril 10 μM.
The mark [12] stands for this setting: Table 1, diabetic (STZ) DBA/2J mice, NSC697923 3 mg/kg 3 times a week for 6 weeks.
The mark [13] stands for this setting: Table 1, non-diabetic DBA/2J mice, NSC697923 3 mg/kg 3 times a week for 6 weeks.
The mark [14] stands for this setting: Example 6, FIG. 6, compared to untreated diabetic mice or mice treated with ACE inhibitors alone.
Setting [15] is: Example 8, FIG. 8a, high glucose 30 mM, Empaglifozin 500 nM.
The mark [16] stands for this setting: Example 8, FIG. 8b, Empaglifozin 500 nM.

These results are taken from patent US12036201B2, “Combination of a ubiquitin-conjugating enzyme complex inhibitor and antihypertensive and/or hypoglycemic drugs in diabetic kidney disease” (UNIVERSITÀ DEGLI STUDI DI BARI ALDO MORO, priority 2018, dated 2024).

Structures are written as SMILES. “Also recorded” adds a separate entry of the source.

In the case of `CCOC(=O)[C@H](CCc1ccccc1)N[C@@H](C)C(=O)N1[C@H](C(=O)O)C[C@@H]2CCC[C@@H]21` [RAMIPRIL, Ramipril], in experiment [1] (setting [9]), the “Blood glucose at sacrifice” value is 555.71 ± 71.48, the “Urinary Volume (mL/24 h)” value was 29.64 ± 9.51 mL/24 h and the “Kidney Weight” value is 0.37 ± 0.054. Moreover, in experiment [1] (setting [10]), the “Blood glucose at sacrifice” value was determined as 112 ± 9.14 and the “Kidney Weight” value is recorded as 0.242 ± 0.027. Besides, the “ug urine albumin 24 h” value with diabetic mice (STZ) [2] (setting [9]) worked out at 388.79 ± 79.78 µg. The “ug urine albumin 24 h” value in the experiment with diabetic mice (STZ) [2] (setting [10]) is 128.54 ± 55.94 µg. Further, the “α-sma expression (western blotting, normalized to actin)” value in experiment [3] was “have no effect”. Also, the “α-sma expression (confocal microscopy)” value in experiment [4] (Examples 4 and 5, FIGS. 4a and 5, high glucose 30 mM, Ramipril 10 μM, listed as ACE inhibitors) was “do not block; also recorded: do not reduce”. Also, the “accumulation of lysine 63 ubiquitinated proteins (confocal microscopy)” value (from here on “accumulation … (confocal microscopy)”) in experiment [5] (setting [11]) was “do not reduce”.
Regarding `Cc1ccc(S(=O)(=O)c2ccc([N+](=O)[O-])o2)cc1` [NSC697923, 2-(4-methylphenyl)sulfonyl-5-nitrofuran], the “Blood glucose at sacrifice” value in experiment [1] (setting [12]) is listed as 540.5 ± 33.05; in experiment [1] (setting [13]), 118.8 ± 10.44; in experiment [1] (setting [9]), 594.28 ± 7.95. Further, the “Urinary Volume (mL/24 h)” value is recorded as 25.83 ± 12.58 mL/24 h in experiment [1] (setting [12]), 0.33 ± 0.17 mL/24 h in experiment [1] (setting [13]) and 24.85 ± 7.78 mL/24 h in experiment [1] (setting [9]). Moreover, the results for the “Kidney Weight” value in experiment [1] (setting [12]), in experiment [1] (setting [13]) and in experiment [1] (setting [9]) were 0.33 ± 0.079, 0.24 ± 0.018 and 0.38 ± 0.05, respectively. Further, the “effect on urinary albuminuria” value with diabetic mice (STZ) [2] (Example 2, first group of animals, treated diabetic mice (STZ+NSC697923) compared to untreated diabetic mice (STZ)) is “has no effect; also recorded: not able to reduce”. The “ug urine albumin 24 h” value amounted to 724.25 ± 690.89 µg in the experiment with diabetic mice (STZ) [2] (setting [12]) and 439.29 ± 211.2 µg with diabetic mice (STZ) [2] (setting [9]). Further, the “accumulation of lysine 63 ubiquitinated proteins in kidney” value in experiment [6] (Example 1, FIG. 1, NSC697923 3 mg/kg 3 times a week for 6 weeks, vs untreated STZ) is reported as “significantly reduces”; in experiment [6] (setting [14]), “significant reduction”. For the same molecule, the “degree of tubular-interstitial fibrosis (Sirius Red Fast Green)” value in the experiment on diabetic mice (STZ) [7] (Example 1, FIGS. 1 and 2, NSC697923 3 mg/kg 3 times a week for 6 weeks, vs untreated STZ, 3 mg/kg) was “significantly reduces; also recorded: capable of reducing”. The “degree of fibrosis (Sirius Red Fast Green)” value in the experiment with diabetic mice (STZ) [7] (setting [14]) was “significant reduction”. Besides, the “α-sma expression (western blotting, normalized to actin)” value in experiment [3] is “reduced”. Also, the “α-sma expression (confocal microscopy)” value is reported as “reduces both processes” in experiment [4] (setting [15]); “reduces both processes; also recorded: able to inhibit” in experiment [4] (Examples 4 and 5, FIGS. 4a and 5, high glucose 30 mM, Ramipril 10 μM). The “accumulation … (confocal microscopy)” value in experiment [5] (setting [11]) and in experiment [5] (setting [16]) was “reduces both processes” in each case. Further, in experiment [8], the “epithelial to mesenchymal transition” value is on record as “blocks”.
Regarding `OC[C@H]1O[C@@H](c2ccc(Cl)c(Cc3ccc(O[C@H]4CCOC4)cc3)c2)[C@H](O)[C@@H](O)[C@@H]1O` [SGLT2 receptor inhibitors, Empaglifozin], the “α-sma expression (confocal microscopy)” value in experiment [4] (setting [15]) is “partially reduce”. Besides, in experiment [5] (setting [16]), the “accumulation … (confocal microscopy)” value is “do not reduce”.
